In US11149031B2, “Substituted N-(3-fluoropropyl)-pyrrolidine compounds, processes for their preparation and therapeutic uses thereof” (SANOFI, priority 2016, dated 2021):
Read-outs that look alike come from different tables or passages of the source.

Assays:
[1] = target: His6-ERα298-554 WT (ERα ligand-binding domain) (Homo sapiens (Human), UniProt P03372); assay: Test A: biochemical antagonist activity, LanthaScreen TR-FRET ERα coactivator assay, WT; details: read-out: Antagonism WT IC50
How it was run: (§1)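 Compounds were added to receptor LBD (0.5 nM), terbium-labelled His6 antibody (0.5 nM), PGC1a coactivator peptide (250 nM) and estradiol at 3 nM or 10 nM. After incubating overnight at room temperature, the 520:495 nm ratio gave IC50 values by four-parameter logistic regression.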

[2] = target: His6-ERα298-554 D538G mutant (ERα ligand-binding domain) (Homo sapiens (Human), UniProt P03372, D538G); assay: Test A: biochemical antagonist activity, LanthaScreen TR-FRET ERα coactivator assay, D538G mutant; details: read-out: Antagonism D538G IC50
How it was run: as §1

[3] = target: His6-ERα298-554 Y537S mutant (ERα ligand-binding domain) (Homo sapiens (Human), UniProt P03372, Y537S); assay: Test A: biochemical antagonist activity, LanthaScreen TR-FRET ERα coactivator assay, Y537S mutant; details: read-out: Antagonism Y537S IC50
How it was run: as §1

[4] = system: MCF7 cells (breast tumor cells) WT; assay: Test B: cell proliferation/viability assay (CellTiter-Glo) on MCF7 WT; assay type: cell-based; details: Homo sapiens, MCF7, 168 h, 7 days of compound exposure
Experimental: (§2) Test B: Cell Proliferation/Viability Assay on MCF7 (Breast Tumor Cells) WT and Mutants Cell Lines
(§3) Test B involves measuring the in vitro proliferation activity of the compounds of the invention by analyzing the viability of the tumor cells.
The measurements of the viability were made using a breast cancer cell viability assay as described hereunder. […]
(§4) MCF7 cells (ATCC) or MCF7 cells expressing (and dependent) on mutants estrogen receptor Tyr 537 Ser or Asp 538 Gly were seeded in 384 wells microplate at concentration of >999 cells/30 μL per well in red phenol free MEM medium containing 5% charcoal dextran striped FBS. The following day, 9 points serial 1:5 dilution of each compound were added to the cells in 20 μL at final concentrations ranging from 3-0.000001 μM. After 7 days of compound exposure, 50 μL of CellTiter-Glo (promega) was added to the cells and relative luminescence arbitrary units (RLUs) were determined in luminescence plate reader (Envision device). CellTiter-Glo was added to 50 μL medium without cells to determine the background signal.
(§5) The percent of viability of each sample was determined as follows: (RLU sample−RLU background/RLU untreated−RLU background)*100=% viability.

[5] = system: MCF7 cells expressing mutant estrogen receptor Tyr 537 Ser; assay: Test B: cell proliferation/viability assay (CellTiter-Glo) on MCF7 Tyr 537 Ser mutant; assay type: cell-based; details: Homo sapiens, MCF7, 168 h, MCF7 cells expressing ER Tyr 537 Ser mutant, 7 days of compound exposure, read-out: proliferation MCF7 Y537S IC50
Excerpt: as §2, §3
(§6) The measurements of the viability were made using a breast cancer cell viability assay as described hereunder.
(§7) MCF7 cells expressing (and dependent) on mutants estrogen receptor Tyr 537 Ser or Asp 538 Gly were generated by transfection of MCF7 parental cells (ATCC) with expression vectors coding for different mutants of estrogen receptor Tyr 537 Ser or Asp 538 Gly. The cells were first selected by antibiotic (related to vector expression) and then selected for their growth dependence on estrogen receptor based on their ability to grow in vitro in absence of estradiol (parental cell line die in absence of estradiol).
as §4, §5

[6] = system: MCF7 cells expressing mutant estrogen receptor Asp 538 Gly; assay: Test B: cell proliferation/viability assay (CellTiter-Glo) on MCF7 Asp 538 Gly mutant; assay type: cell-based; details: Homo sapiens, MCF7, 168 h, MCF7 cells expressing ER Asp 538 Gly mutant, 7 days of compound exposure, read-out: proliferation MCF7 D538G IC50
Excerpt: as §2, §3, §6, §7, §4, §5

[7] = target: ERα in MCF7 cells (Homo sapiens (Human), UniProt P03372); assay: Test C: estrogen receptor degradation activity, ERα in cell western assay in MCF7 cells; assay type: cell-based; details: for DC50: 4 hours post compound addition, ERα in cell western, read-out: Degradation IC50; for % Degradation at 3 μM: 4 hours, relative to fulvestrant
How it was run: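 Steps: seed MCF7 in phenol red-free medium containing 5% charcoal-dextran stripped FBS; next day add compound, final 3–0.000018 μM; after 4 h fix with 5% formalin plus 0.1% Triton; stain ERα overnight, then secondary at 37 °C for 60 min with Syto-64 at 2 μM; scan green and red intensities.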

[8] = asterisk (*): protocol using 10 nM estradiol

His6-ERα298-554 D538G mutant (ERα ligand-binding domain), sequence (P03372 298-554 D538G): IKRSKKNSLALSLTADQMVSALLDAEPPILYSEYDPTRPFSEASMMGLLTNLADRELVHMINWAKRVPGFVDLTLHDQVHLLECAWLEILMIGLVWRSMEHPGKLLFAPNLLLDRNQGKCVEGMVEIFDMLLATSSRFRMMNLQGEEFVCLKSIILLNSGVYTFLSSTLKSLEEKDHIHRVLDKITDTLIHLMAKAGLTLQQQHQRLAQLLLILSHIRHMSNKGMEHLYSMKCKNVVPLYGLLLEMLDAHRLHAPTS
His6-ERα298-554 WT (ERα ligand-binding domain), sequence (P03372 298-554): as the sequence (P03372 298-554 D538G) above, with G241D counted along it
ERα in MCF7 cells, sequence (P03372 whole entry): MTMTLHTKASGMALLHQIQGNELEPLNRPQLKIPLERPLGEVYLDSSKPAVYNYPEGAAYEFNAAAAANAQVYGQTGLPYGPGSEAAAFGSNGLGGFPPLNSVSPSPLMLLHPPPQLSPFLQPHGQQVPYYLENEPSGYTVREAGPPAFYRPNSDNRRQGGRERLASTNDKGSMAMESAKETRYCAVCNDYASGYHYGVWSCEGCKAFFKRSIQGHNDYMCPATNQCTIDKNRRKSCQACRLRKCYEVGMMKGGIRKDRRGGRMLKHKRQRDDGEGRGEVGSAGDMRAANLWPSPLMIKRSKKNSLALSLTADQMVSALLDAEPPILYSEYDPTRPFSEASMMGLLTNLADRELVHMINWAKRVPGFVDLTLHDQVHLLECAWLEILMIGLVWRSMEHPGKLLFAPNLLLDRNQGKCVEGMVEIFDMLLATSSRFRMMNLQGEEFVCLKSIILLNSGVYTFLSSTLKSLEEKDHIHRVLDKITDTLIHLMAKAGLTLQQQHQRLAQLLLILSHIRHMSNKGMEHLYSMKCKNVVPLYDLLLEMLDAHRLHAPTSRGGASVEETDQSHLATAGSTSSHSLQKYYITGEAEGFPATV
His6-ERα298-554 Y537S mutant (ERα ligand-binding domain), sequence (P03372 298-554 Y537S): as the sequence (P03372 298-554 D538G) above, with Y240S, G241D counted along it

Row | Compound | IC50 [1, 8] [nM] | IC50 [2, 8] [nM] | IC50 [3, 8] [nM] | IC50 [4] [nM] | IC50 [5] [nM] | IC50 [6] [nM] | DC50 [7] [nM] | % Degradation at 3 μM [7] [%] | IC50 ([1]; protocol with 3 nM estradiol) [nM] | IC50 ([2]; protocol with 3 nM estradiol) [nM] | IC50 ([3]; protocol with 3 nM estradiol) [nM]
1 | CCOc1cc(C2=C(c3ccc(O[C@H]4CCN(CCCF)C4)cc3)c3ccc(O)cc3SCC2)ccc1F [Example 195, 4-(3-ethoxy-4-fluoro-phenyl)-5-[4-[(3S)-1-(3-fluoropropyl)pyrrolidin-3-yl]oxyphenyl]-2,3-dihydro-1-benzothiepin-8-ol] | 14 | 335 | 170 | 0.3 | 3 | 0.7 | 0.4 | 97 |  |  | 
2 | Oc1ccc2c(c1)OCC(c1ccc(Cl)cc1Cl)=C2c1ccc(O[C@H]2CCN(CCCF)C2)cc1 [Example 81, 3-(2,4-dichlorophenyl)-4-[4-[(3S)-1-(3-fluoropropyl)pyrrolidin-3-yl]oxyphenyl]-2H-chromen-7-ol] | 520 | > 4000 | > 4000 | 18 | 17 | 3.5 | 7 | 77 |  |  | 
3 | CC(C)(C)c1ccc(C2=C(c3ccc(O[C@H]4CCN(CCCF)C4)cc3)c3ccc(O)cc3SC2)cc1 [Example 52, 3-(4-tert-butylphenyl)-4-[4-[(3S)-1-(3-fluoropropyl)pyrrolidin-3-yl]oxyphenyl]-2H-thiochromen-7-ol] | 351 | > 4000 | 2910 | 2 | 41 | 3 | 1 | 84 |  |  | 
4 | COCCOc1ccc(C2=C(c3ccc(O[C@H]4CCN(CCCF)C4)cc3)c3ccc(O)cc3OCC2)cc1 [Example 146, 5-[4-[(3S)-1-(3-fluoropropyl)pyrrolidin-3-yl]oxyphenyl]-4-[4-(2-methoxyethoxy)phenyl]-2,3-dihydro-1-benzoxepin-8-ol] | 51 | 1170 | 845 | 6 | 69 | 12 | 2 | 86 |  |  | 
5 | Oc1ccc2c(c1)SCCC(c1ccc(OCF)cc1)=C2c1ccc(O[C@H]2CCN(CCCF)C2)cc1 [Example 218, 4-[4-(fluoromethoxy)phenyl]-5-[4-[(3S)-1-(3-fluoropropyl)pyrrolidin-3-yl]oxyphenyl]-2,3-dihydro-1-benzothiepin-8-ol] | 1 | 25 | 22 | 0.1 | 1 | 0.1 | 0.2 | 78 |  |  | 
6 | Cc1ccc(C2=C(c3ccc(O[C@H]4CCN(CCCF)C4)cc3)c3ccc(O)cc3SC2)c(F)c1 [Example 16, 3-(2-fluoro-4-methyl-phenyl)-4-[4-[(3S)-1-(3-fluoropropyl)pyrrolidin-3-yl]oxyphenyl]-2H-thiochromen-7-ol] |  |  |  | 0.9 | 10 | 2 | 1 | 90 | 4 | 16 | 6
7 | CCOc1ccc(C2=C(c3ccc(O[C@H]4CCN(CCCF)C4)cc3)c3cc(F)c(O)cc3OCC2)c(C)c1 [Example 155, 4-(4-ethoxy-2-methyl-phenyl)-7-fluoro-5-[4-[(3S)-1-(3-fluoropropyl)pyrrolidin-3-yl]oxyphenyl]-2,3-dihydro-1-benzoxepin-8-ol] | 21 | 365 | 228 | 0.4 | 6 | 1 | 0.2 | 81 |  |  | 
8 | Oc1ccc2c(c1)SCCC(c1ccc(F)c(OC(F)F)c1)=C2c1ccc(O[C@H]2CCN(CCCF)C2)cc1 [Example 188, 4-[3-(difluoromethoxy)-4-fluoro-phenyl]-5-[4-[(3S)-1-(3-fluoropropyl)pyrrolidin-3-yl]oxyphenyl]-2,3-dihydro-1-benzothiepin-8-ol] |  |  |  | 0.2 | 4 | 2 | 0.8 | 90 | 8.2 | 266 | 157
9 | Oc1ccc2c(c1)CCCC(c1ccc(Cl)cc1Cl)=C2c1cnc(O[C@H]2CCN(CCCF)C2)nc1 [Example 238, 6-(2,4-dichlorophenyl)-5-[2-[(3S)-1-(3-fluoropropyl)pyrrolidin-3-yl]oxypyrimidin-5-yl]-8,9-dihydro-7H-benzo[7]annulen-2-ol] | 3 | 59 | 33 | 0.3 | 3 | 0.5 | 0.5 | 87 |  |  | 
10 | Oc1ccc2c(c1)C(c1ccc(O[C@H]3CCN(CCCF)C3)cc1)=C(c1ccc(OC(F)(F)F)cc1)CC2 [Example 8, 8-[4-[(3S)-1-(3-fluoropropyl)pyrrolidin-3-yl]oxyphenyl]-7-[4-(trifluoromethoxy)phenyl]-5,6-dihydronaphthalen-2-ol] | 1390 | > 4000 | > 4000 | > 999 | > 999 | > 999 | 25 | 84 |  |  | 
11 | Cc1ccc(C2=C(c3ccc(O[C@H]4CCN(CCCF)C4)cc3)c3cc(Cl)c(O)cc3OCC2)c(F)c1 [Example 145, 7-chloro-4-(2-fluoro-4-methyl-phenyl)-5-[4-[(3S)-1-(3-fluoropropyl)pyrrolidin-3-yl]oxyphenyl]-2,3-dihydro-1-benzoxepin-8-ol] |  |  |  | 9 | 124 | 17 | 0.5 | 82 | 256 | 4000 | 3270
12 | CCOc1ccc(C2=C(c3ccc(O[C@H]4CCN(CCCF)C4)cc3)c3ccc(O)cc3SCC2)cc1F [Example 185, 4-(4-ethoxy-3-fluoro-phenyl)-5-[4-[(3S)-1-(3-fluoropropyl)pyrrolidin-3-yl]oxyphenyl]-2,3-dihydro-1-benzothiepin-8-ol] |  |  |  | 0.4 | 6 | 1 | 0.7 | 84 | 2.9 | 104 | 65
13 | COc1ccc(C2=C(c3ccc(O[C@H]4CCN(CCCF)C4)cc3)c3ccc(O)cc3OCC2)c(Cl)c1 [Example 154, 4-(2-chloro-4-methoxy-phenyl)-5-[4-[(3S)-1-(3-fluoropropyl)pyrrolidin-3-yl]oxyphenyl]-2,3-dihydro-1-benzoxepin-8-ol] | 5 | 77 | 51 | 0.2 | 4 | 0.6 | 0.2 | 92 |  |  | 
14 | Oc1ccc2c(c1)SCC(c1ccc(Cl)nc1Cl)=C2c1ccc(O[C@H]2CCN(CCCF)C2)cc1 [Example 50, 3-(2,6-dichloro-3-pyridyl)-4-[4-[(3S)-1-(3-fluoropropyl)pyrrolidin-3-yl]oxyphenyl]-2H-thiochromen-7-ol] | 72 | 1550 | 1170 | 0.6 | 7 | 2 | 0.2 | 84 |  |  | 
